These results are taken from patent US20240043386A1, “Modulators of the Cystic Fibrosis Transmembrane Conductance Regulator Protein and Methods of Use” (AbbVie Global Enterprises Ltd., priority 2021, published 2024).

Each structure is given as a SMILES string. pEC50: −log10 of the molar value. Read-outs that look alike come from different tables or passages of the source.

For test [1], the target named is T1, F508delCFTR (Homo sapiens, UniProt P13569, DEL508-508).
T1 construct: expressed in transfected cells; host or cells: CFBE41o- human lung-derived epithelial cell line, doxycycline-inducible expression
As to the kind of experiment: Cell Surface Expression-Horse Radish Peroxidase (CSE-HRP) assay in CFBE41o-F508delCFTR-HRP cells. The format is cell-based. The settings on record: for pEC50: CFBE41o-F508delCFTR-HRP cells, 18-24 hours at 33° C., luminescence; for Maximum % activity (without co-corrector) / Maximum % activity (with co-corrector): normalized to on-plate positive control corrector (2 μM). As to the method: A cellular assay for measuring the F508delCFTR cell surface expression after correction with test compounds either without or with a co-corrector (2 μM of 3-[(2R,4R)-4-({[1-(2,2-difluoro-1,3-benzodioxol-5-yl)cyclopropyl]carbonyl}amino)-7-methoxy-3,4-dihydro-2H-chromen-2-yl]benzoic acid), was developed in human lung derived epithelial cell line (CFBE4lo-) (Veit G et al, (2012) Mol Biol Cell. 23(21): 4188-4202). The development was achieved by expressing the F508delCFTR mutation along with a horseradish peroxidase (HRP) in the fourth exofacial loop, and then measuring the HRP activity using luminescence readout from these cells, CFBE4lo-F508delCFTR-HRP, that were incubated overnight with the test corrector compounds, either without or with the co-corrector. For this primary assay, the CFBE4lo-F508delCFTR-HRP cells were plated in 384-well plates (Greiner Bio-one; Cat 781080) at 4,000 cells/well along with 0.5 μg/mL doxycycline to induce the F508delCFTR-RP expression and further incubated at 37° C., 5% CO2 for 68-72 hours. The test compounds were then added either without or with a co-corrector at the required concentrations and further incubated for 18-24 hours at 33° C. The highest concentration tested was 20 μM or 30 μM (GI-1 to GIII-36) with an 8-point concentration response curve using a 3-fold dilution in both the test compound without or with the co-corrector. Three replicate plates were run to determine one EC50. All plates contained negative controls (dimethyl sulfoxide, DMSO) and positive control (2 μM or 3 μM (GI-1 to GIII-36) of 3-[(2R,4R)-4-({[1-(2,2-difluoro-1,3-benzodioxol-5-yl)cyclopropyl]carbonyl}amino)-7-methoxy-3,4-dihydro-2H-chromen-2-yl]benzoic acid) as well as on-plate concentration response of the positive control. Post incubation, the plates were washed 5× times with Dulbecco's phosphate buffered saline (DPBS), followed by the addition of the HRP substrate, luminol (50 μL), and measuring the HRP activity using luminescence readout on EnVision® Multilabel Plate Reader (Perkin Elmer; product number 2104-0010). The raw counts from the experiment were analyzed using Accelrys® Assay Explorer v3.3.
Z′ greater than 0.5 was used as passing quality control criteria for the plates. The Z′ is defined as:
1−[3*SDPositive Control+3*SDNegative Control/Absolute (MeanPositive Control−MeanNegative Control)]
The % activity measured at each of the 8 test concentrations of the test compound added either without or with a co-corrector (2 μM or 3 μM (GI-1 to GIII-36) of 3-[(2R,4R)-4-({[1-(2,2-difluoro-1,3-benzodioxol-5-yl)cyclopropyl]carbonyl}amino)-7-methoxy-3,4-dihydro-2H-chromen-2-yl]benzoic acid) was normalized to the on-plate positive control using the following formulae:
% activity (Test compound without co-corrector)=[(test compound without co-corrector response−DMSO response)/(positive control response−DMSO response)]*100
% activity (Test compound with co-corrector)=[(test compound with co-corrector response−DMSO response)/(positive control response−DMSO response)]*100
The maximum % activity achieved for the test compound either without or with a co-corrector at any tested concentration is presented in Table 3 along with the respective EC50's calculated using the following general sigmoidal curve with variable Hill slope equation (described as Model 42 in the Accelrys® Assay Explorer v3.3 software):
General sigmoidal curve with concentration, response, top, bottom, EC50 and Hill slope. This model describes a sigmoidal curve with an adjustable baseline, a. The equation can be used to fit curves where response is either increasing or decreasing with respect to the independent variable, “x”.

Test [2] deals with T2, F508del/F508del CFTR (Homo sapiens, UniProt P13569, DEL508-508).
T2 construct: cells isolated from CF patients with the homozygous mutation; endogenous in cells; host or cells: primary human bronchial epithelial (hBE) cells from CF patients homozygous for F508del
As to the kind of experiment: Trans-Epithelial Current Clamp (TECC) assay using primary human bronchial epithelial cells. The settings on record: for Emax (% Dual): maximum percent activity relative to positive control (co-corrector 0.15 μM + potentiator 0.45 μM = 100%), primary hBE cells F508del/F508del; for pEC50: primary hBE cells homozygous F508del/F508del, test C2 corrector with co-corrector and potentiator, 18-24 hours at 37° C., equivalent CFTR current (IEQ)/AUC. The format is cell-based. From the text: A cell-based assay was developed using the primary human bronchial epithelial cells (hBE cells) with F508del/F508del CFTR and other mutations.
Primary human bronchial epithelial (hBE) cells from CFTR patients with homozygous F508del/F508del mutation were expanded from 1×10^6 to 250×10^6 cells (Neuberger, T et al., 2011, Methods Mol Biol 741:39-54). For this purpose, cells isolated from CF patients with the homozygous mutation, procured from the CF center tissue procurement and cell culture core at the Marsico Lung Institute at UNC (Randell), the Cystic Fibrosis translational research center at McGill University (University), and Rosalind Franklin University Medical School (RFUMS) were seeded onto 24 well Corning (Cat #3378) filter plates that were coated with 3T3 conditioned media and grown at an air-liquid interface for 35 days using an Ultroser® G supplemented differentiation media. All the primary human bronchial epithelial cells were collected in accordance with institutional review board approval protocols. Apical surface mucus was removed 72 hours before the experiment by incubating the apical surface of the cells for 30 minutes with 3 mM dithiothreitol (DTT) prepared in Dulbecco's phosphate buffered saline (DPBS) with Ca^2+ and Mg^2+. This was followed with aspiration of the mucus from the apical surface along with DPBS. The apical surface was re-washed with phosphate buffered saline (PBS) incubated for 30 minutes followed with aspiration. These hBE cells were then incubated with the desired concentrations of the test C2 corrector compounds along with co-corrector, 4-[(2R,4R)-4-({[1-(2,2-difluoro-1,3-benzodioxol-5-yl)cyclopropyl]carbonyl}amino)-7-(difluoromethoxy)-3,4-dihydro-2H-chromen-2-yl]benzoic acid and potentiator, (5-{3-amino-5-[4-(trifluoromethoxy)benzene-1-sulfonyl]pyridin-2-yl}-1,3,4-oxadiazol-2-yl)methanol, for 18-24 hours at 37° C., 5% CO2. The desired concentrations of the correctors and potentiator compounds were prepared from the 10 mM stocks in differentiation media and were always applied on the basolateral side of the epithelial cells. We also used an assay format where a fixed concentration of potentiator was added chronically along with the corrector compounds. This chronic treatment with the potentiator helped eliminate any interaction that might happen with CFTR modulators (correctors and potentiators) and thereby determined the true efficacy of the modulator combinations reflective of clinical relevance.
The assay uses a Transepithelial Current Clamp (TECC) (Vu, C B et al., 2017; J Med Chem 60:458-473) instrument that can measure the functionality of the mutated channel by measuring the equivalent CFTR current (IEQ) generated by the polarized primary epithelial cells. We used a TECC-24 with a 24-channel electrode manifold allowing for the simultaneous measurement of the transepithelial voltage, VT, and transepithelial resistance, RT, under current clamp conditions, from 24 filters using a 24 well Costar filter plate. The design of the filters in the 24 well filter plates was exactly the same as the design of an individual Transwell filter used in the classical Ussing Chamber with a surface area of 0.33 cm^2. Each measured VT values were corrected for the electrode offset potential measured using buffer alone in a separate plate, and each measured RT values were then corrected for the combined solution series and empty filter resistances. The corrected VT and RT values were then used to calculate the equivalent current, IEQ using Ohm's law (IEQ=VT/RT). The area under the curve (AUC) for the time period between the forskolin peak IEQ response and at the time of bumetanide addition was also calculated using a one-third trapezoid method, in addition to calculating the IEQ. The assay was run in a 24-well format and all 24-wells were measured at the same time point giving a higher throughput for this assay. […]

The mark [3] stands for this setting: with co-corrector (2 μM), read-out: EC50 (with co-corrector).
The mark [4] stands for this setting: without co-corrector, read-out: EC50 (without co-corrector).

T1 sequence (P13569 with tags, fused parts or gaps DEL508-508): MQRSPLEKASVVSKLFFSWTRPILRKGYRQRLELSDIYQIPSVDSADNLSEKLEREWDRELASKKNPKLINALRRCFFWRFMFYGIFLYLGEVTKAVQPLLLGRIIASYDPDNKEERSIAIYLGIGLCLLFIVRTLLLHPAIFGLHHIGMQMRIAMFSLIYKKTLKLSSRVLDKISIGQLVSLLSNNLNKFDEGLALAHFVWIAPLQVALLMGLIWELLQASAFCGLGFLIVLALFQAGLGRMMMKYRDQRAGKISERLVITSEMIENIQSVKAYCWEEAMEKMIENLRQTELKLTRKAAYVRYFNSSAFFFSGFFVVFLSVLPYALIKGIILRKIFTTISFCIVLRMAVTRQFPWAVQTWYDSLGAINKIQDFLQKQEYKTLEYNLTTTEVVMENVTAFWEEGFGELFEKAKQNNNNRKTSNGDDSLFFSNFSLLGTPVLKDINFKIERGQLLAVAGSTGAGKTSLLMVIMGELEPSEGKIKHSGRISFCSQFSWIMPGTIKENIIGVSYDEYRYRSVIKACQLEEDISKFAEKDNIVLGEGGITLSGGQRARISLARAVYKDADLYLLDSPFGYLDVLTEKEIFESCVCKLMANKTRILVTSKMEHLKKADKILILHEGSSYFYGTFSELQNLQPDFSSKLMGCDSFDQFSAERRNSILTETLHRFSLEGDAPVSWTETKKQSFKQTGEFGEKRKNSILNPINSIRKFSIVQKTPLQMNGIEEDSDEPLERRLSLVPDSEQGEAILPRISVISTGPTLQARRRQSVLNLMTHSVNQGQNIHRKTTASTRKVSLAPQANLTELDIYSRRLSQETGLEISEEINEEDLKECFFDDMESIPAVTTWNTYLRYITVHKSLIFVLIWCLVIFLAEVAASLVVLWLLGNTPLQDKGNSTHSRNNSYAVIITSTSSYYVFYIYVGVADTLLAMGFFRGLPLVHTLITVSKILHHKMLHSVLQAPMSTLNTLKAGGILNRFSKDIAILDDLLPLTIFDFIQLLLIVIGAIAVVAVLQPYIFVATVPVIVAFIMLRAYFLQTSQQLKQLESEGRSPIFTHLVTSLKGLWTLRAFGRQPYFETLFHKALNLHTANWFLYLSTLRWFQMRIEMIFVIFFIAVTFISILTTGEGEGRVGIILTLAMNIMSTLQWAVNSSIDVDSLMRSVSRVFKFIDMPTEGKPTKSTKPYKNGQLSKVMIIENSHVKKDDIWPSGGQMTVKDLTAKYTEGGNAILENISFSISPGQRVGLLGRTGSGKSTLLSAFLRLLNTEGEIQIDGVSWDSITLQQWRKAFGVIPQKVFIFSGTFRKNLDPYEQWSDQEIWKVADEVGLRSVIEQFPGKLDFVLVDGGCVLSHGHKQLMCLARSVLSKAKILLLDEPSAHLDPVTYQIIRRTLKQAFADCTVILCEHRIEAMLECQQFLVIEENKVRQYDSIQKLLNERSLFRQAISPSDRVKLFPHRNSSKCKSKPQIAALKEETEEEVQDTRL
T2 sequence (P13569 with tags, fused parts or gaps DEL508-508): as above

For orientation: pEC50 means the EC50 on a negative log10 scale, so that one unit is a factor of ten. For `COc1ccc(C)cc1[C@]1(C(=O)NS(=O)(=O)c2cccc3nc(C)ccc23)C[C@@H]1c1ccccc1C(F)(F)F` (racemic) [Example 29, rac-(1r,2s)-1-(2-methoxy-5-methylphenyl)-N-(2-methylquinoline-5-sulfonyl)-2-[2-(trifluoromethyl)phenyl]cyclopropane-1-carboxamide], the negative-log EC50 (pEC50) in test [1] (setting [3]) is 6.79; in test [1] (setting [4]) it was 6.56; in test [2], 8.11. The “Maximum % activity (without co-corrector)” value in test [1] (without co-corrector) stood at 666%. Further, the “Emax (% Dual)” value in test [2] is recorded as 241 % Dual.
`COc1ccc(C)cc1[C@]1(C(=O)NS(=O)(=O)c2cccc3nc(C)ccc23)C[C@@H]1c1ccc(C(C)C)nc1` [Example 67, (1S,2R)-1-(2-methoxy-5-methylphenyl)-N-(2-methylquinoline-5-sulfonyl)-2-[6-(propan-2-yl)pyridin-3-yl]cyclopropane-1-carboxamide]: the values for the pEC50 in test [1] (setting [3]), in test [1] (setting [4]) and in test [2] were 5.79, 5.48 and 7.68, respectively. Also, in test [1] (with co-corrector (2 μM)), the “Maximum % activity (with co-corrector)” value is 989%. Further, the “Maximum % activity (without co-corrector)” value in test [1] (without co-corrector) was 492%. Further, the “Emax (% Dual)” value in test [2] is recorded as 174 % Dual.
Consider `COc1ccc(C)cc1[C@]1(C(=O)NS(=O)(=O)c2cccc3nc(C)ccc23)C[C@@H]1c1ccccc1C(F)(F)F` (single isomer, unassigned) [Example 30], for which the pEC50 was 6.59 in test [1] (setting [3]), 6.58 in test [1] (setting [4]) and 7.33 in test [2]. Moreover, the “Maximum % activity (without co-corrector)” value in test [1] (without co-corrector) is on record as 589%. Moreover, the “Emax (% Dual)” value in test [2] is 313 % Dual.
As for `COc1ccc(C)cc1[C@]1(C(=O)NS(=O)(=O)c2cccc3nc(C)ccc23)C[C@@H]1c1cnc(C)cn1` (single isomer, unassigned) [Example 92], the pEC50 in test [1] (setting [3]) is 5.94; in test [1] (setting [4]), 5.67; in test [2], 7.06. Besides, the “Maximum % activity (without co-corrector)” value in test [1] (without co-corrector) is 653%. Further, the “Emax (% Dual)” value in test [2] stood at 187 % Dual.
Regarding `COc1nccc([C@@H]2C[C@]2(C(=O)NS(=O)(=O)c2cccc3nc(C)ccc23)c2cc(C)ccc2OC)n1` (single isomer, unassigned) [Example 99], the pEC50 is 5.56 in test [1] (setting [3]), 5.40 in test [1] (setting [4]) and less than 6.00 in test [2]. Further, the “Maximum % activity (with co-corrector)” value in test [1] (with co-corrector (2 μM)) is recorded as 509%. The “Maximum % activity (without co-corrector)” value in test [1] (without co-corrector) worked out at 180%. Further, the “Emax (% Dual)” value in test [2] amounted to 126 % Dual.
On to `CCOc1ccc([C@H]2C[C@@]2(C(=O)NS(=O)(=O)c2cccc3nc(C)ccc23)c2cc(C)ccc2OC)cn1` [Example 58, (1S,2R)-2-(6-ethoxypyridin-3-yl)-1-(2-methoxy-5-methylphenyl)-N-(2-methylquinoline-5-sulfonyl)cyclopropane-1-carboxamide], for which the pEC50 in test [1] (setting [3]) is 5.67; in test [1] (setting [4]) it was 5.41; in test [2], 7.50. Also, the “Emax (% Dual)” value in test [2] worked out at 246 % Dual.
The like results for `COc1ccc(C)cc1[C@]1(C(=O)NS(=O)(=O)c2cccc3nc(C)ccc23)C[C@@H]1c1ccccc1C` [Example 34, (1S,2R)-1-(2-methoxy-5-methylphenyl)-2-(2-methylphenyl)-N-(2-methylquinoline-5-sulfonyl)cyclopropane-1-carboxamide] were, in that order, 6.41, 6.11, 8.54 and 459 % Dual.
As for `COc1ccc(C)cc1[C@]1(C(=O)NS(=O)(=O)c2cccc3nc(C)ccc23)C[C@@H]1c1cnc(C)cn1` (racemic) [Example 89, rac-(1r,2r)-1-(2-methoxy-5-methylphenyl)-2-(5-methylpyrazin-2-yl)-N-(2-methylquinoline-5-sulfonyl)cyclopropane-1-carboxamide], the results for the pEC50 in test [1] (setting [3]), in test [1] (setting [4]) and in test [2] were 5.90, 5.65 and 6.85, respectively. Further, in test [1] (with co-corrector (2 μM)), the “Maximum % activity (with co-corrector)” value came to 935%. Moreover, the “Maximum % activity (without co-corrector)” value in test [1] (without co-corrector) amounted to 447%. Further, the “Emax (% Dual)” value in test [2] was 322 % Dual.
As for `COc1ncc([C@@H]2C[C@]2(C(=O)NS(=O)(=O)c2cccc3nc(C)ccc23)c2cc(C)ccc2OC)cn1` (racemic) [Example 36, rac-(1r,2s)-1-(2-methoxy-5-methylphenyl)-2-(2-methoxypyrimidin-5-yl)-N-(2-methylquinoline-5-sulfonyl)cyclopropane-1-carboxamide], the figures for the pEC50 in test [1] (setting [3]), in test [1] (setting [4]) and in test [2] were 5.61, 5.36 and less than 6.52, respectively. Also, in test [1] (with co-corrector (2 μM)), the “Maximum % activity (with co-corrector)” value is 666%. In addition, the “Maximum % activity (without co-corrector)” value in test [1] (without co-corrector) is listed as 248%. The “Emax (% Dual)” value in test [2] turned out to be 173 % Dual.
